Data on one molecule can be found in article PMC2892883 (Behavioural brain research, 2010).

The target in this assay is mGluR8b (Homo sapiens, UniProt O00222). As to the kind of experiment: […]GTPγS binding, inhibition of the potentiation by AZ12216052. The assay is classed as cell-based.

Each structure is given as a SMILES string.

Chain of mGluR8b (O00222 34-908 isoform O00222-2): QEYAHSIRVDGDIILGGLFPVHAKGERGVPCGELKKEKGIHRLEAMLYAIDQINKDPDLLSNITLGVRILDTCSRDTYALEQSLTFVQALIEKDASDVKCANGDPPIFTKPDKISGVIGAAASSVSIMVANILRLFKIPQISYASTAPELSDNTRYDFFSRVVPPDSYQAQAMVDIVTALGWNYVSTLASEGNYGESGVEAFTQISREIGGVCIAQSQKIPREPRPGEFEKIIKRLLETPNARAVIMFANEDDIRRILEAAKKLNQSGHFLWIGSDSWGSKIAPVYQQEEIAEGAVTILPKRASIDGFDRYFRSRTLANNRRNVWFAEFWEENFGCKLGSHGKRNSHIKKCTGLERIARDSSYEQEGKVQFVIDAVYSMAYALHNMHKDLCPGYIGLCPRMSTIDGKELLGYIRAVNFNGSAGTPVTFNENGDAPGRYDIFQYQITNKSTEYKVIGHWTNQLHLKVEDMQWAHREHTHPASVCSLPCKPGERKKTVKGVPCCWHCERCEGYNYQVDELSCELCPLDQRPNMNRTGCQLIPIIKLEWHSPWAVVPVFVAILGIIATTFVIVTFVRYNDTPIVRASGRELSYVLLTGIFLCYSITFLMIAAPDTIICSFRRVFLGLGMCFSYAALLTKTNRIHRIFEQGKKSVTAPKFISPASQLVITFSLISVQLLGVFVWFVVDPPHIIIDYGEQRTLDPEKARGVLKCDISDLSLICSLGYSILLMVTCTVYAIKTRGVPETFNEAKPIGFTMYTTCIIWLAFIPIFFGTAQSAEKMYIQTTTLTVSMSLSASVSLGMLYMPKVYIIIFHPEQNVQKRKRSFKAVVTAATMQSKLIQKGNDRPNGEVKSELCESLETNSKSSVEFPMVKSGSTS

Regarding `NC(C(=O)O)(c1ccc(P(=O)(O)O)cc1)C1CC1` (racemic) [CPPG], the “[35S]GTPγS binding, inhibition of the potentiation by AZ12216052” value is “The potentiator effect of AZ12216052 on mGluR8 is inhibited by group-II/III antagonists LY341495 and CPPG”.
